Source: ChEMBL document CHEMBL4402613, “Targeting ALK2: An Open Science Approach to Developing Therapeutics for the Treatment of Diffuse Intrinsic Pontine Glioma” (J Med Chem, 2020)
pIC50: −log10 of the molar value. The source made the active and inactive calls. The calls are words filed in the database; no cut-off is given here.

Tests used:
in vitro = details: human, Caco-2
Description: Apparent permeability across apical to basolateral membrane in human Caco2 cells at 5 uM incubated for 120 mins in orbital shaker by LC-QTOF/MS analysis

[1] = mouse, in vivo, po, 10 mg/kg, 24 h
TGF-beta receptor type-1 = target: T1, TGF-beta receptor type-1 (Homo sapiens, UniProt P36897); type: single protein
T1 sequence (P36897 whole entry): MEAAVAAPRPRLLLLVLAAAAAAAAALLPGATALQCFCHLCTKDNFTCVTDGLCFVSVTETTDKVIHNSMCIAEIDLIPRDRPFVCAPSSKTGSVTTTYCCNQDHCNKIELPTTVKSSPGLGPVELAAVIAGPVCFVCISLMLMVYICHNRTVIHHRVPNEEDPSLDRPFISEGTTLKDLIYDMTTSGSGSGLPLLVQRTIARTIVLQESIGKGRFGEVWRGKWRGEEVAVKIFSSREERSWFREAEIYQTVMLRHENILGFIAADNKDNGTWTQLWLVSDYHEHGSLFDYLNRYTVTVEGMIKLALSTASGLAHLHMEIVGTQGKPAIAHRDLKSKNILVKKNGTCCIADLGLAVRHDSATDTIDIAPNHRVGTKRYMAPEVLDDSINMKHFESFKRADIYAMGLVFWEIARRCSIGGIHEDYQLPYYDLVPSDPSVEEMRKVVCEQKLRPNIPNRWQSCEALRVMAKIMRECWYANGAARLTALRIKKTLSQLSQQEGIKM
Description: Inhibition of human ALK5 using casein as substrate in presence of 10 uM [gamma33P] ATP by radioactive assay

Cytochrome P450 2B6 = target: T2, Cytochrome P450 2B6 (Homo sapiens, UniProt P20813)
T2 sequence (P20813 whole entry): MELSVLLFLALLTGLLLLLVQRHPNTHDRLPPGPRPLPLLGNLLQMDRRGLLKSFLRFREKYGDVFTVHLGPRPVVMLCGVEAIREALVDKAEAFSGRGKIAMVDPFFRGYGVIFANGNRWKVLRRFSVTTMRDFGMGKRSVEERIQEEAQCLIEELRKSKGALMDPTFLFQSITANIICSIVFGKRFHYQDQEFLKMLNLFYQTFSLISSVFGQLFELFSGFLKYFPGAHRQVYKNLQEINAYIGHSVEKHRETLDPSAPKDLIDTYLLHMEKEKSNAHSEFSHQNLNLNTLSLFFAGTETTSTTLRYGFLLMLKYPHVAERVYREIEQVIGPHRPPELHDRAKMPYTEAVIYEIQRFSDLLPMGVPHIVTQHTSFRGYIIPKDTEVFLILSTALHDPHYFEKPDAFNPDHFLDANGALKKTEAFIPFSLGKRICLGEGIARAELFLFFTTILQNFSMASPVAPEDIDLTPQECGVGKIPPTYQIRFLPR
Description: Inhibition of CYP2B6 in human liver microsomes using bupropion as substrate incubated for 40 mins in presence of NADPH by LC-MS/MS analysis

[2] = mouse, microsomes, 1 h, 1 µM
Description: Microsomal stability in CD-1 mouse liver microsomes assessed as parent compound remaining at 1 uM and 37 degree C measured after 60 mins in presence of NADP+ by LC-QTOF/MS analysis

[3] = target: T3, Serine/threonine-protein kinase A-Raf (Homo sapiens) (UniProt P10398); experiment: Inhibition of ARAF (unknown origin) at 1 uM
T3 sequence (whole entry): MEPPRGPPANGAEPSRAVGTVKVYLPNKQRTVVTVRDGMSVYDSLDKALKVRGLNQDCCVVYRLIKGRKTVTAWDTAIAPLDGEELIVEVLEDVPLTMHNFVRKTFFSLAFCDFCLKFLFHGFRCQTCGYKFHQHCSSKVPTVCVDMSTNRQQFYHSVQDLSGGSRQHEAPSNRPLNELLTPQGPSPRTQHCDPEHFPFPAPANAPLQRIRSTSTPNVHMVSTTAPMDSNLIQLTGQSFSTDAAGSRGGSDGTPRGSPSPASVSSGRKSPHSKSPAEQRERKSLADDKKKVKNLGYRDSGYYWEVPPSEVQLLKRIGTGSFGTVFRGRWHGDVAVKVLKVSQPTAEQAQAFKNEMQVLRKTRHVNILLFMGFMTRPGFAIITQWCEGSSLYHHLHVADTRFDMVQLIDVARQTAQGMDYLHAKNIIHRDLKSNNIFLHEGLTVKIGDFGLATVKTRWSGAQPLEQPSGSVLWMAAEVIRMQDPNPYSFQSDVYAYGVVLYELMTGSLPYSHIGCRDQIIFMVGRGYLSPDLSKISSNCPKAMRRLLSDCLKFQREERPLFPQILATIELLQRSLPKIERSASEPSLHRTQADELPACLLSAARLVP

**Q.** What does the source list for `COc1cc(-c2cncc(-c3ccc(N4CCN(C)CC4)cc3)c2C)cc(F)c1C(N)=O`?
**A.** Papp A→B at 2 h, 5 µM (in vitro): 5.5 ×10⁻⁶ cm/s; Cmax [1]: 2140 ng/mL; pIC50 (TGF-beta receptor type-1): 5.98; pIC50 (Cytochrome P450 2B6): < 4.30; Stability [2]: Stable; inhibition [3]: Active
